Tests used:
[1] = molecular target: T1, ATP-dependent translocase ABCB1 (Homo sapiens, UniProt P08183); test: TP_TRANSPORTER: inhibition of Azidopine photoaffinity labelling (Azidopine: 0.1 uM, Astemizole: 10 uM) in membranes from K562/DOX cells; assay type: functional, cell membranes, Membrane; conditions: k562/adr
[2] = molecular target: T1, ATP-dependent translocase ABCB1; test: TP_TRANSPORTER: increase in Doxorubicin intracellular accumulation (Doxorubicin: 4 uM, Astemizole: 3 uM) in K562/DOX cells; assay type: functional, cell-based; conditions: k562/adr

T1 sequence (P08183 whole entry): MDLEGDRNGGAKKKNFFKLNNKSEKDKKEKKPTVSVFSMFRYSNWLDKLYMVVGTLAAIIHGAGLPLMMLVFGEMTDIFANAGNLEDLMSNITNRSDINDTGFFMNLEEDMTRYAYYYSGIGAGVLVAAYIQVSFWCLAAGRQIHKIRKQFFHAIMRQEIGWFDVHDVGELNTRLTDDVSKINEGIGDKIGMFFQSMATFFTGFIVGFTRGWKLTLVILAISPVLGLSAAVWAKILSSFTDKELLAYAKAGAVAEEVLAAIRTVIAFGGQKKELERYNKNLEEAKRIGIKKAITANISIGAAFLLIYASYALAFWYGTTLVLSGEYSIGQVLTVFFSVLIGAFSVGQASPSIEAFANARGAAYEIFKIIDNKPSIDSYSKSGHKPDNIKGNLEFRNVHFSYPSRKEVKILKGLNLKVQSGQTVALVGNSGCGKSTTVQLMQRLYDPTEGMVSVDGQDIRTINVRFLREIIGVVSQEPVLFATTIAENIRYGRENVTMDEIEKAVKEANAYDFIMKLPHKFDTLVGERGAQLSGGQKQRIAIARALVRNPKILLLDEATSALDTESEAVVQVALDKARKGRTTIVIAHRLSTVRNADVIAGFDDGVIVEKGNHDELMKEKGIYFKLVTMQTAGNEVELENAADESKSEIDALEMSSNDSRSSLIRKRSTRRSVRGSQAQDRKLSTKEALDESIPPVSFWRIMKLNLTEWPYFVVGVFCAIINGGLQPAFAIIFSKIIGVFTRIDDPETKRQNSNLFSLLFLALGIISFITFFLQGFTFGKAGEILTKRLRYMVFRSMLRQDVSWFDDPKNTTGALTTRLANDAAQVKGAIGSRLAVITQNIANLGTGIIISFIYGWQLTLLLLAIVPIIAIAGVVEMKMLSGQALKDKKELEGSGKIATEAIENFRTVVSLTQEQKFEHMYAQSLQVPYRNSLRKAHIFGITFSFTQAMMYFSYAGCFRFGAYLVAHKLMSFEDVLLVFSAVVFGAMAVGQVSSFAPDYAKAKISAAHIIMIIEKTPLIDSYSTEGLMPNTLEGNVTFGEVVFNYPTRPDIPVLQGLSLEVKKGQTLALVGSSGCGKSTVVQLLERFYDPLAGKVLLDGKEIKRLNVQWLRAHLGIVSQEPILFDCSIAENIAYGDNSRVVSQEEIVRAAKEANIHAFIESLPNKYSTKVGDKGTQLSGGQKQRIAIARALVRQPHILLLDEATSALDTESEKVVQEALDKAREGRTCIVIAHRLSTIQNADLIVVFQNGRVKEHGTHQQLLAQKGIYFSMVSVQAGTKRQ

Activity [1]: inhibitor [+] | Activity [2]: inhibitor [+]
Compound: COc1ccc(CCN2CCC(Nc3nc4ccccc4n3Cc3ccc(F)cc3)CC2)cc1 [ASTEMIZOLE]

Reference: ChEMBL document CHEMBL2074023, “Reversal of acquired resistance to doxorubicin in K562 human leukemia cells by astemizole” (Biol Pharm Bull, 2000)
